Assay results reported in patent publication US20230364074A1, “Compounds and Compositions for Disrupting Programmed Ribosomal Frameshifting” (YALE UNIVERSITY, priority 2020, published 2023).
Read-outs that look alike come from different tables or passages of the source.

Legend:
SARS-CoV-2 FSE (−1 PRF) = assay: cells; format: cell-based
HEK293T cells = assay: Cell viability in the high-throughput screen (cell nuclei numbers)
Protocol: HEK293T cells were plated in 384 well plates at the density of 5,000 cells/well. Cells were treated by 10 μM candidate compounds 30 min before transfection of 15 ng mCherry-FSE-GFP(−1) plasmid DNA in each well. 24 hours after transfection, cell nuclei were stained with Hoechst dye. Cell nuclei, mCherry, and GFP signals were imaged using an automated fluorescent microscope with a 10x objective, and the acquired images were quantified using the CellProfiler image analysis package. Cell nuclei numbers were quantified as the metric for cell viability. Mean GFP and RFP intensity values were measured in all transfected cells, and GFP/mCherry mean intensity ratios were quantified as the metric for PRF efficiency. The mCherry-GFP fusion plasmid and the mCherry-FSE-GFP(0) plasmid were used as positive and negative controls for elevated and reduced GFP/mCherry ratios, respectively.

[1] = Severe acute respiratory syndrome coronavirus 2, HEK-293T, 24 h; read-out: PERCENT EFFECT 2 (Decreased GFP/Red ratio)
[2] = Severe acute respiratory syndrome coronavirus 2, HEK-293T, 24 h; read-out: PERCENT EFFECT (Increased GFP/Red Ratio)
[3] = 10 μM compound, cell nuclei numbers
[4] = Severe acute respiratory syndrome coronavirus 2, HEK-293T, 24 h, read-out: PERCENT EFFECT 2 (Decreased GFP/Red ratio)

Row | Molecule | inhibition at 10 µM (SARS-CoV-2 FSE (−1 PRF); [1]) | activation at 10 µM (SARS-CoV-2 FSE (−1 PRF); [2]) | PERCENT VIABILITY (HEK293T cells; [3]) | further results
1 | NCCNc1ccc(NCCN)c2c1C(=O)c1ccncc1C2=O [Pixantrone dimaleate, 6,9-bis[(2-aminoethyl)amino]-5H,10H-benzo[g]isoquinoline-5,10-dione] | -29.9% | 15.8% | 120.8% | –
2 | CCOC(=O)Nc1ccc(NCc2ccc(F)cc2)nc1N [flupirtine, ethyl N-(2-amino-6-{[(4-fluorophenyl)methyl]amino}pyridin-3-yl)carbamate] | -27.2% | 14.4% | 110.5% | –
3 | O=[N+]([O-])c1cc(Cl)cc(-c2cc(Cl)cc([N+](=O)[O-])c2O)c1O [niclofolan, 4-chloro-2-(5-chloro-2-hydroxy-3-nitrophenyl)-6-nitrophenol] | -36.6% | 17.2% | 68.0% | –
4 | CCN(CC)CCNC(=O)c1cc(Br)c(N)cc1OC [BROMOPRIDE] | 65.7% | -35.5% | 113.8% | –
5 | CCC1=C[C@@H]2CN(C1)Cc1c([nH]c3ccccc13)[C@@](C(=O)OC)(c1cc3c(cc1OC)N(C)[C@H]1[C@@](O)(C(=O)OC)[C@H](OC(C)=O)[C@]4(CC)C=CCN5CC[C@]31[C@@H]54)C2 [Vinorelbine] | -29.2% | 15.2% | 27.8% | –
6 | GRAMICIDIN [GRAMICIDIN (gramicidin A shown)] | – | – | 3.3% | PERCENT EFFECT 2 (Decreased GFP/Red ratio) (SARS-CoV-2 FSE (−1 PRF)): −29.0%; PERCENT EFFECT (Increased GFP/Red Ratio) (SARS-CoV-2 FSE (−1 PRF)): 15.0%; PERCENT EFFECT 2 (Decreased GFP/Red ratio) (SARS-CoV-2 FSE (−1 PRF); listed as gramicidin): −38.6%; PERCENT EFFECT (Increased GFP/Red Ratio) (SARS-CoV-2 FSE (−1 PRF); listed as gramicidin): 18.9%; PERCENT VIABILITY (HEK293T cells; 10 μM compound, cell nuclei numbers, listed as gramicidin): 10.1%
7 | Cc1cc(/C=C/c2ccc3cc(N(C)C)ccc3[n+]2C)c(C)n1-c1ccccc1 [PYRVINIUM PAMOATE] | – | – | 15.1% | –
8 | Cc1cc(C)c(Nc2ccnc(Nc3ccc(C#N)cc3)n2)c(C)c1 [dapivirine, 4-[[4-[(2,4,6-trimethylphenyl)amino]pyrimidin-2-yl]amino]benzonitrile] | -51.1% | 24% | 36.7% | –
9 | COc1cccc2c1C(=O)c1c(O)c3c(c(O)c1C2=O)C[C@@](O)(C(=O)CO)C[C@@H]3O[C@H]1C[C@H](N)[C@H](O)[C@H](C)O1.Cl [Doxorubicin Â•HCl] | – | – | 6.15% | PERCENT EFFECT 2 (Decreased GFP/Red ratio) (SARS-CoV-2 FSE (−1 PRF)): 109.41%; PERCENT EFFECT (Increased GFP/Red Ratio) (SARS-CoV-2 FSE (−1 PRF)): −57.80%
10 | O=C(Nc1cccc(C(F)(F)F)c1)c1ccccc1O [salfluverine, 2-hydroxy-N-[3-(trifluoromethyl)phenyl]benzamide] | -40.2% | 18.9% | 133.5% | –
11 | CC[n+]1c(-c2ccccc2)c2cc(N)ccc2c2ccc(N)cc21 [HOMIDIUM BROMIDE] | 107% | -58% | 310.9% | –
12 | NCCCNc1ccc2c3c(nn2CCNCCO)-c2c(O)ccc(O)c2C(=O)c13 [piroxantrone, 5-(AMINO-PR-AMINO)-DI-HO-2-(2-(HO-ET-AMINO)-ET)-2H-DIBENZO(CD,G)INDAZOL-ONE] | 88.7% | -43.5% | 91.45% | –
13 | Clc1ccc(C(Cn2ccnc2)OCc2ccsc2Cl)c(Cl)c1 (centres unmarked) [tioconazole] | – | – | – | inhibition at 10 µM (SARS-CoV-2 FSE (−1 PRF); [4]): -51.1%; activation at 10 µM (SARS-CoV-2 FSE (−1 PRF); Severe acute respiratory syndrome coronavirus 2, HEK-293T, 24 h, read-out: PERCENT EFFECT (Increased GFP/Red Ratio)): 26.7%; PERCENT VIABILITY (HEK293T cells; human): 99.7%
14 | CC(=O)[C@]1(O)Cc2c(O)c3c(c(O)c2[C@@H](O[C@H]2C[C@H](N)[C@H](O)[C@H](C)O2)C1)C(=O)c1ccccc1C3=O [idarubicin] | 76.8% | -40.6% | 10.75% | –
15 | COc1cccc2c1C(=O)c1c(O)c3c(c(O)c1C2=O)C[C@@](O)(C(C)=NNC(=O)c1ccccc1)C[C@@H]3O[C@H]1C[C@H](N)[C@H](O)[C@H](C)O1.Cl [zorubicin, N-[1-[(2S,4S)-4-[(2R,4S,5S,6S)-4-amino-5-hydroxy-6-methyloxan-2-yl]oxy-2,5,12-trihydroxy-7-methoxy-6,11-dioxo-3,4-dihydro-1H-tetracen-2-yl]ethylideneamino]benzamide hydrochloride] | – | – | – | inhibition at 10 µM (SARS-CoV-2 FSE (−1 PRF); [4]): 106%
